Assay in all cases: inhibition of tumour cell growth, NCI panel, 48 h
Experiment [1] relates to T-47D breast.
For experiment [2], the system named is UO-31 renal.
Experiment [3] relates to SK-OV-3 ovarian.
Experiment [4] has as its system PC-3 prostate.
Experiment [5] has as its system IGROV1 ovarian.
Experiment [6] relates to OVCAR-5 ovarian.
Experiment [7] deals with SW-620 colon.
In experiment [8] the test system is OVCAR-4 ovarian.

SMILES strings stand for the structures. Where “and” joins values, the source holds several entries; their conditions need not be identical. Identical values can stand only once.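 Exposure lasted 48 hours, with cells grown in 96-well plates and compounds tested at five concentrations. GI50: concentration for 50% inhibition of growth. The concentration for full growth arrest is given as TGI.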

`Nc1nc(N)c2ncn(Cc3c(Cl)cccc3Cl)c2n1`: the TGI in experiment [1], in experiment [2], in experiment [3], in experiment [4], in experiment [5] and in experiment [6] was over 100 µM throughout. In addition, the TGI in experiment [7] and in experiment [8] was over 100 µM throughout.

Take `COc1cc(C)c(N(C)C(=O)CN(C)C)cc1Nc1nc(Nc2cccc(F)c2C(N)=O)c2cc[nH]c2n1`: the GI50 was over 25 µM in experiment [1]; 9.26 µM in experiment [2]; over 25 µM in experiment [3]; over 25 µM in experiment [4]; over 25 µM in experiment [5]; 1.41 µM in experiment [6]. The GI50 in experiment [7] was over 22.4 µM; in experiment [8], over 25 µM. Moreover, the TGI in experiment [1], in experiment [2], in experiment [3], in experiment [4], in experiment [5] and in experiment [6] was over 25 µM each time. Moreover, the TGI in experiment [7] and in experiment [8] was over 25 µM in each case.

For the compound `Cn1c(-c2c(N)n(Cc3ccc(Cl)cc3)c3nc(C#N)c(C#N)nc23)nc2ccccc21`, the GI50 in experiment [1] was 1.83 µM; in experiment [2] it was 5.35 µM; in experiment [3], 1.89 µM; in experiment [4], 4.62 µM; in experiment [5], 1.54 µM; in experiment [6], 6.74 µM. In addition, the GI50 is 5.26 µM in experiment [7] and 3.89 µM in experiment [8]. The TGI in experiment [1] was 14.5 µM; in experiment [2] it was 13.2 µM; in experiment [3], 5.67 µM; in experiment [4] it was over 50 µM; in experiment [5] it was 7.71 µM; in experiment [6] it was 16 µM. In addition, the results for the TGI in experiment [7] and in experiment [8] were over 50 µM and 18.6 µM, respectively.

As for `O=C(Oc1ccccc1Cl)c1cccnc1Nc1ccnc(C(F)(F)F)c1`, the GI50 in experiment [1] was 29.4 µM; in experiment [2], 14.6 µM; in experiment [3], 36.9 µM; in experiment [4], 17.8 µM; in experiment [5] it was 10.7 µM; in experiment [6] it was 39.6 µM. In addition, the GI50 in experiment [7] is 3.72 µM; in experiment [8] it was 27.8 µM. Moreover, the TGI is over 100 µM in experiment [1]; 32.6 µM in experiment [2]; over 100 µM in experiment [3]; 36.3 µM in experiment [4]; 30.4 µM in experiment [5]; over 100 µM in experiment [6]. The values for the TGI in experiment [7] and in experiment [8] were 22.3 µM and 95.8 µM, respectively.

With `C=C(C)[C@@H]1CC[C@]2(C)[C@H](CC=C3[C@@H]4CC(C)(C)CC[C@]4(C(=O)OC)CC[C@]32C)[C@@]1(C)CC/C(N)=N/O`, the GI50 in experiment [1] was 2.46 µM; in experiment [2] it was 1.51 µM; in experiment [3] it was 4.62 µM; in experiment [4], 1.91 µM; in experiment [5], 2.05 µM; in experiment [6], 1.72 µM. The figures for the GI50 in experiment [7] and in experiment [8] were 1.88 µM and 2.16 µM, respectively. Moreover, the TGI was 9.77 µM in experiment [1]; 2.94 µM in experiment [2]; 27.2 µM in experiment [3]; 7.81 µM in experiment [4]; 6.09 µM in experiment [5]; 3.73 µM in experiment [6]. The figures for the TGI in experiment [7] and in experiment [8] were 4.32 µM and 7.23 µM, respectively.

As to `c1ccc(CN2CCC3(CC2)ONC2=NCCN23)cc1`, the GI50 in experiment [1] was over 100 µM; in experiment [2], 22.3 µM; in experiment [3], 60.8 µM; in experiment [4] it was 49.5 µM; in experiment [5] it was 35.8 µM; in experiment [6], 40.8 µM. The GI50 is 75 µM in experiment [7] and over 100 µM in experiment [8]. The TGI in experiment [1], in experiment [2], in experiment [3], in experiment [4], in experiment [5] and in experiment [6] was over 100 µM each time. The TGI in experiment [7] and in experiment [8] was over 100 µM in each case.

As to `CC(C)(C)c1ccc(NC(=O)c2cc(=O)c3ccccc3[nH]2)c(C(C)(C)C)c1O`, the GI50 in experiment [1] is 7.49 µM; in experiment [2], 5.15 µM; in experiment [3], 13.8 µM; in experiment [4], 2.6 µM; in experiment [5] it was 10.4 µM; in experiment [6] it was 6.26 µM. Further, the GI50 was 8.24 µM in experiment [7] and 4.18 µM in experiment [8]. For the same compound, the TGI in experiment [1] came to 21.9 µM; in experiment [2] it was 17.5 µM; in experiment [3] it was 26.8 µM; in experiment [4], 8.29 µM; in experiment [5] it was 22.7 µM; in experiment [6], 18.7 µM. Further, the TGI in experiment [7] is 27.1 µM; in experiment [8] it was 15.7 µM.

`COc1cc2c(c(OC)c1OC)C(=O)c1c-2n(CCCN)c(=O)c2cc([N+](=O)[O-])ccc12`: the GI50 is 2.48 µM in experiment [1]; 1.89 µM in experiment [2]; 1.95 µM in experiment [3]; 0.736 µM in experiment [4]; 1.43 µM in experiment [5]; 1.61 µM in experiment [6]. Further, the GI50 in experiment [7] was 0.31 µM; in experiment [8], 0.372 µM. Further, the TGI in experiment [1] is 6.91 µM; in experiment [2] it was 3.57 µM; in experiment [3], 4 µM; in experiment [4], 3.43 µM; in experiment [5], 3.05 µM; in experiment [6], 3.04 µM. The TGI in experiment [7] was 3.3 µM; in experiment [8], 1.47 µM.

In the case of `COc1cc2c(cc1OCCN1C(=O)c3cccc4cccc(c34)C1=O)N=C[C@@H]1CCCN1C2=O`, the GI50 in experiment [1] was 18.9 µM; in experiment [2], 16.8 µM; in experiment [4] it was 15 µM; in experiment [5], 12.4 µM; in experiment [6] it was 23.9 µM; in experiment [7], 17.2 µM. Besides, the TGI was 28.2 µM and > 100 µM in experiment [1]; 15.8 µM and 30.5 µM in experiment [2]; 46.5 µM in experiment [3]; 13.6 µM and 28.2 µM in experiment [4]; 11.6 µM and 25.6 µM in experiment [5]; 18.1 µM and 49.9 µM in experiment [6]. The TGI in experiment [7] is 15.8 µM and > 100 µM; in experiment [8], 50 µM and 39 µM.

Regarding `COc1ccc(/C=C2/CCOC2=O)cc1`, the GI50 was over 100 µM in experiment [1]; 49.8 µM in experiment [2]; over 100 µM in experiment [3]; over 100 µM in experiment [4]; over 100 µM in experiment [5]; over 100 µM in experiment [6]. Besides, the GI50 in experiment [7] and in experiment [8] was over 100 µM throughout. In addition, the TGI in experiment [1], in experiment [2], in experiment [3], in experiment [4], in experiment [5] and in experiment [6] was over 100 µM in each case. Moreover, the TGI in experiment [7] and in experiment [8] was over 100 µM each time.

The record behind these values is PubChem BioAssay (NCI).
